Species: Rattus norvegicus
Assay: Open TG-GATES - Regimen: Daily Repeat
Format: toxicity, organism-based, Sprague-Dawley
Design: regimen Daily Repeat, gender Male, age 6 weeks
Details: in vivo, po, route gavage; for APTT / Bas / Eos / Fbg / Hb / Lym / MCH / MCHC / MCV / Mono / Plat / RBC / Ret / WBC / Ht: tissue Blood; for KIDNEY_L / KIDNEY_R / KIDNEY_TOTAL: tissue Kidney; for ALP / ALT / AST / BUN / CRE / Ca / Cl / DBIL / GLC / IP / K / LDH / Na / PL / RALB / TBIL / TC / TG / TP / gamma-GTP: tissue Plasma
[1] = 0 mg/kg, 72 h, dose level Control, time 3 day
[2] = 0 mg/kg, […], dose level Control, time 7 day
[3] = 0 mg/kg, […], dose level Control, time 14 day
[4] = 0 mg/kg, […], dose level Control, time 28 day
[5] = 25 mg/kg, 72 h, dose level Low, time 3 day
[6] = 25 mg/kg, […], dose level Low, time 7 day
[7] = 25 mg/kg, […], dose level Low, time 14 day
[8] = 25 mg/kg, […], dose level Low, time 28 day

O=C1CN(/N=C/c2ccc(-c3ccc([N+](=O)[O-])cc3)o2)C(O)=N1 [DANTROLENE]
TERMINAL_BW [1]: 235.4 g | APTT [1]: 16.8 s | Bas [1]: 0% | Eos [1]: 1% | Fbg [1]: 224.8 mg/dL | Hb [1]: 13.3 g/dL | Lym [1]: 77% | MCH [1]: 21.6 pg | MCHC [1]: 33.6% | MCV [1]: 64.2 fL | Mono [1]: 6.6% | Plat [1]: 128.8 x10_4/uL | RBC [1]: 618.2 x10_4/ul | Ret [1]: 6.6% | WBC [1]: 113.2 x10_2/uL | KIDNEY_L [1]: 1.1 g | KIDNEY_R [1]: 1.1 g | KIDNEY_TOTAL [1]: 2.2 g | ALP [1]: 842.8 IU/L | ALT [1]: 34 IU/L | AST [1]: 62.8 IU/L | BUN [1]: 19.2 mg/dL | CRE [1]: 0.6 mg/dL | Ca [1]: 10.9 mg/dL | Cl [1]: 104 meq/L | DBIL [1]: 0.004 mg/dL | GLC [1]: 200.6 mg/dL | IP [1]: 7.5 mg/dL | K [1]: 4.7 meq/L | LDH [1]: 85 IU/L | Na [1]: 140.2 meq/L | PL [1]: 158.6 mg/dL | RALB [1]: 3.8 g/dL | TBIL [1]: 0.3 mg/dL | TC [1]: 78.4 mg/dL | TG [1]: 114.8 mg/dL | TP [1]: 5.8 g/dL | gamma-GTP [1]: 1 IU/L | TERMINAL_BW [2]: 269.1 g | TERMINAL_BW [3]: 300.9 g | TERMINAL_BW [4]: 379.1 g | APTT [2]: 16.9 s | Bas [2]: 0% | Eos [2]: 1% | Fbg [2]: 213 mg/dL | Hb [2]: 14 g/dL | Lym [2]: 78.2% | MCH [2]: 21 pg | MCHC [2]: 33.6% | MCV [2]: 62.7 fL | Mono [2]: 7.4% | Plat [2]: 126.8 x10_4/uL | RBC [2]: 666.4 x10_4/ul | Ret [2]: 5.1% | WBC [2]: 106.4 x10_2/uL | APTT [3]: 17.6 s | Bas [3]: 0% | Eos [3]: 0.4% | Fbg [3]: 201.8 mg/dL | Hb [3]: 14.8 g/dL | Lym [3]: 82.6% | MCH [3]: 20.3 pg | MCHC [3]: 33.3% | MCV [3]: 61.1 fL | Mono [3]: 3.8% | Plat [3]: 112.9 x10_4/uL | RBC [3]: 728.6 x10_4/ul | Ret [3]: 3.7% | WBC [3]: 110.6 x10_2/uL | APTT [4]: 18.6 s | Bas [4]: 0% | Eos [4]: 1.4% | Fbg [4]: 217.6 mg/dL | Hb [4]: 15.6 g/dL | Ht [4]: 46.2% | Lym [4]: 84% | MCH [4]: 19.5 pg | MCHC [4]: 33.9% | MCV [4]: 57.5 fL | Mono [4]: 4.6% | Plat [4]: 117 x10_4/uL | RBC [4]: 803.2 x10_4/ul | Ret [4]: 2.8% | WBC [4]: 103.3 x10_2/uL | KIDNEY_L [2]: 1.2 g | KIDNEY_R [2]: 1.2 g | KIDNEY_TOTAL [2]: 2.4 g | KIDNEY_L [3]: 1.2 g | KIDNEY_R [3]: 1.3 g | KIDNEY_TOTAL [3]: 2.5 g | KIDNEY_L [4]: 1.4 g | KIDNEY_R [4]: 1.3 g | KIDNEY_TOTAL [4]: 2.7 g | ALP [2]: 931.4 IU/L | ALT [2]: 33.4 IU/L | AST [2]: 64.2 IU/L | BUN [2]: 18.2 mg/dL | CRE [2]: 0.5 mg/dL | Ca [2]: 10.7 mg/dL | Cl [2]: 106.8 meq/L | DBIL [2]: 0.002 mg/dL | GLC [2]: 204 mg/dL | IP [2]: 7.2 mg/dL | K [2]: 5.1 meq/L | LDH [2]: 76.6 IU/L | Na [2]: 138.6 meq/L | PL [2]: 164.2 mg/dL | RALB [2]: 3.8 g/dL | TBIL [2]: 0.3 mg/dL | TC [2]: 79.6 mg/dL | TG [2]: 138.8 mg/dL | TP [2]: 5.8 g/dL | gamma-GTP [2]: 1.4 IU/L | ALP [3]: 833.2 IU/L | ALT [3]: 31.4 IU/L | AST [3]: 61.6 IU/L | BUN [3]: 17.8 mg/dL | CRE [3]: 0.6 mg/dL | Ca [3]: 10.5 mg/dL | Cl [3]: 105.4 meq/L | DBIL [3]: 0.012 mg/dL | GLC [3]: 203.6 mg/dL | IP [3]: 7.5 mg/dL | K [3]: 4.5 meq/L | LDH [3]: 82.6 IU/L | Na [3]: 141.8 meq/L | PL [3]: 139.2 mg/dL | RALB [3]: 3.9 g/dL | TBIL [3]: 0.3 mg/dL | TC [3]: 62 mg/dL | TG [3]: 85.8 mg/dL | TP [3]: 5.9 g/dL | gamma-GTP [3]: 0.8 IU/L | ALP [4]: 628.6 IU/L | ALT [4]: 30.6 IU/L | AST [4]: 50.8 IU/L | BUN [4]: 18 mg/dL | CRE [4]: 0.6 mg/dL | Ca [4]: 10.3 mg/dL | Cl [4]: 106.8 meq/L | DBIL [4]: 0.016 mg/dL | GLC [4]: 187.8 mg/dL | IP [4]: 6.5 mg/dL | K [4]: 4.4 meq/L | LDH [4]: 83.2 IU/L | Na [4]: 140 meq/L | PL [4]: 143.4 mg/dL | RALB [4]: 3.8 g/dL | TBIL [4]: 0.3 mg/dL | TC [4]: 69.6 mg/dL | TG [4]: 127.2 mg/dL | TP [4]: 6.1 g/dL | gamma-GTP [4]: 1.2 IU/L | TERMINAL_BW [5]: 228.7 g | APTT [5]: 19.4 s | Bas [5]: 0% | Eos [5]: 1% | Fbg [5]: 221.4 mg/dL | Hb [5]: 13.7 g/dL | Lym [5]: 78% | MCH [5]: 21.8 pg | MCHC [5]: 33.8% | MCV [5]: 64.6 fL | Mono [5]: 8.4% | Plat [5]: 138.1 x10_4/uL | RBC [5]: 624.8 x10_4/ul | Ret [5]: 5.3% | WBC [5]: 107 x10_2/uL | KIDNEY_L [5]: 1.1 g | KIDNEY_R [5]: 1.1 g | KIDNEY_TOTAL [5]: 2.2 g | ALP [5]: 873.2 IU/L | ALT [5]: 37.8 IU/L | AST [5]: 75 IU/L | BUN [5]: 19.6 mg/dL | CRE [5]: 0.6 mg/dL | Ca [5]: 10.8 mg/dL | Cl [5]: 104.4 meq/L | DBIL [5]: 0.004 mg/dL | GLC [5]: 194.8 mg/dL | IP [5]: 6.2 mg/dL | K [5]: 4.5 meq/L | LDH [5]: 102.4 IU/L | Na [5]: 139.8 meq/L | PL [5]: 151.8 mg/dL | RALB [5]: 4 g/dL | TBIL [5]: 0.3 mg/dL | TC [5]: 73.8 mg/dL | TG [5]: 122.4 mg/dL | TP [5]: 5.8 g/dL | gamma-GTP [5]: 0.6 IU/L | TERMINAL_BW [6]: 252.5 g | TERMINAL_BW [7]: 308.4 g | TERMINAL_BW [8]: 376.7 g | APTT [6]: 16.1 s | Bas [6]: 0% | Eos [6]: 1.2% | Fbg [6]: 215 mg/dL | Hb [6]: 14.4 g/dL | Lym [6]: 79% | MCH [6]: 20.9 pg | MCHC [6]: 33.9% | MCV [6]: 61.5 fL | Mono [6]: 8% | Plat [6]: 108.3 x10_4/uL | RBC [6]: 689.4 x10_4/ul | Ret [6]: 4.6% | WBC [6]: 121.3 x10_2/uL | APTT [7]: 17.2 s | Bas [7]: 0% | Eos [7]: 0.8% | Fbg [7]: 222.2 mg/dL | Hb [7]: 14.8 g/dL | Lym [7]: 85.2% | MCH [7]: 20.3 pg | MCHC [7]: 33.8% | MCV [7]: 60.1 fL | Mono [7]: 4.8% | Plat [7]: 122.4 x10_4/uL | RBC [7]: 726.6 x10_4/ul | Ret [7]: 3.9% | WBC [7]: 111.4 x10_2/uL | APTT [8]: 17.2 s | Bas [8]: 0% | Eos [8]: 1% | Fbg [8]: 211 mg/dL | Hb [8]: 15.6 g/dL | Ht [8]: 45.9% | Lym [8]: 82% | MCH [8]: 20 pg | MCHC [8]: 34% | MCV [8]: 58.9 fL | Mono [8]: 4.8% | Plat [8]: 112.7 x10_4/uL | RBC [8]: 779 x10_4/ul | Ret [8]: 2.9% | KIDNEY_L [6]: 1.1 g | KIDNEY_R [6]: 1.2 g | KIDNEY_TOTAL [6]: 2.3 g | KIDNEY_L [7]: 1.2 g | KIDNEY_R [7]: 1.3 g | KIDNEY_TOTAL [7]: 2.5 g | KIDNEY_L [8]: 1.4 g | KIDNEY_R [8]: 1.5 g | KIDNEY_TOTAL [8]: 2.9 g | ALP [6]: 808 IU/L | ALT [6]: 35 IU/L | AST [6]: 68.8 IU/L | BUN [6]: 17 mg/dL | CRE [6]: 0.6 mg/dL | Ca [6]: 10.8 mg/dL | Cl [6]: 107.8 meq/L | DBIL [6]: 0.014 mg/dL | GLC [6]: 192.8 mg/dL | IP [6]: 6.1 mg/dL | K [6]: 5 meq/L | LDH [6]: 121.4 IU/L | Na [6]: 138.8 meq/L | PL [6]: 151.4 mg/dL | RALB [6]: 3.9 g/dL | TBIL [6]: 0.4 mg/dL | TC [6]: 77 mg/dL | TG [6]: 92.6 mg/dL | TP [6]: 5.7 g/dL | gamma-GTP [6]: 1 IU/L | ALP [7]: 770 IU/L | ALT [7]: 33.2 IU/L | AST [7]: 69.6 IU/L | BUN [7]: 18.6 mg/dL | CRE [7]: 0.6 mg/dL | Ca [7]: 10.6 mg/dL | Cl [7]: 104.2 meq/L | DBIL [7]: 0.01 mg/dL | GLC [7]: 198 mg/dL | IP [7]: 6.1 mg/dL | K [7]: 4.3 meq/L | LDH [7]: 112.8 IU/L | Na [7]: 141.6 meq/L | PL [7]: 148.8 mg/dL | RALB [7]: 3.9 g/dL | TBIL [7]: 0.3 mg/dL | TC [7]: 67.8 mg/dL | TG [7]: 150.4 mg/dL | TP [7]: 6 g/dL | gamma-GTP [7]: 0.8 IU/L | ALP [8]: 601.2 IU/L | ALT [8]: 28.6 IU/L | AST [8]: 55.8 IU/L | BUN [8]: 18.2 mg/dL | CRE [8]: 0.5 mg/dL | Ca [8]: 10.6 mg/dL | Cl [8]: 107.2 meq/L | DBIL [8]: 0.018 mg/dL | GLC [8]: 179 mg/dL | IP [8]: 5 mg/dL | K [8]: 4.3 meq/L | LDH [8]: 106.6 IU/L | Na [8]: 140.4 meq/L | PL [8]: 154.8 mg/dL | RALB [8]: 4 g/dL | TBIL [8]: 0.3 mg/dL | TC [8]: 76.4 mg/dL | TG [8]: 145.8 mg/dL | TP [8]: 6.2 g/dL
